The target of assay [1] is T1, amyloid-β fibrils (Aβ1–40) (Homo sapiens, UniProt P05067).
T1 construct: gene APP; synthetic Aβ1–40, fibrillar
The assay can be described thus: time-resolved photoluminescence titration, two-site non-cooperative fit. The conditions noted are these: read-out: Values ^a. The format is binding.

The target of assay [2] is T1, amyloid-β fibrils (Aβ1–40). The assay can be described thus: time-resolved photoluminescence titration, two-site fit. The format is binding.

T1 sequence (P05067 672-711): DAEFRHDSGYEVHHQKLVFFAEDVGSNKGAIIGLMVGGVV

With `[Ru+2].c1ccc(-c2ccccn2)nc1.c1ccc(-c2ccccn2)nc1.c1cnc2c(c1)c1nc3nccnc3nc1c1cccnc12` [[Ru(bpy)2(dpqp)]^2+], the Kd in assay [1] came out at 2.2 ± 0.5 µM.
For the molecule `[Ru+2].c1ccc(-c2ccccn2)nc1.c1ccc(-c2ccccn2)nc1.c1ccc(-c2ccccn2)nc1` [[Ru(bpy)3]^2+], the Kd in assay [2] was 4.6 µM.
